Here are results for twelve compounds from patent US4945090A, “Phenoxy-substituted beta-carboline derivatives, their production and their use as drugs” (Schering Aktiengesellschaft, priority 1985, dated 1990).

≈ marks a conversion by molar mass, not a printed value.

Test [1] has as its system benzodiazepine receptors. In words: displacement of 3H-flunitrazepam from benzodiazepine receptors in live brain, in vivo. To be noted: reduction of specific flunitrazepam binding in live brain to 50% of control; normally intraperitoneal; 3H-flunitrazepam i.v. after 15 minutes, forebrain removed after another 20 minutes. A general note: Displacement assays read how much labelled ligand stays bound in the presence of the test substance.

Test [2] concerns the target benzodiazepine receptors. In words: displacement of 3H-flunitrazepam from benzodiazepine receptors in vitro (rat forebrain membranes). The following applies: 50% displacement of specific 3H-flunitrazepam binding (1.0 nM, 0° C.), brain membranes of rats, pH 7.1.
Test [3] relates to spasms induced by pentylenetrazole (pentazol). Briefly: PTZ spasms antagonism (protection from pentylenetrazole-induced spasms and death). The following applies: Mus musculus, ip, 0.5 h; protects 50% of animals from spasms and death; test substance i.p. 15-30 minutes before pentazol 150 mg/kg s.c.; Litchfield and Wilcoxon; read-out: PTZ (ED50) mg/kg in vivo. Further details: species or system mice. Here is the method:
The compounds according to the invention especially show anxiolytic and anticonvulsive effectiveness. […] Pentazol is administered subcutaneously in an amount of 150 mg/kg as hydrochloric acid solution (pH 2-3) 15-30 minutes after the intraperitoneal application of the test substance. This amount induces clonic and tonic spasms, which lead to death in untreated animals. The number of mice which show spasms and the number of them that died 30 minutes after pentazol are recorded (PTZ spasms antagonism).
The ED50 values indicated in the table were determined according to the method of Litchfield and Wilcoxon (J. Pharmacol. exp. Ther. 96 (1949) […]) as the amount of antagonistically acting substance which protects 50% of the animals from spasms and death.

As to `CCOC(=O)c1ncc2[nH]c3cccc(Oc4ccc(Cl)cc4Cl)c3c2c1COC` [5-(2,4-dichlorophenoxy)-4-methoxymethyl-beta-carboline-3-carboxylic acid ethyl ester], the “ED50 (mg/kg) in vivo” value in test [1] is on record as 3.2 mg/kg. Besides, the “IC50 (ng/ml) in vitro” value in test [2] was 2.9 ng/mL (≈ 6.51 nM). For the same compound, the ED50 in test [3] was 4 mg/kg.

Consider `COCc1c(C(=O)OC(C)C)ncc2[nH]c3cccc(Oc4ccccc4Cl)c3c12` [5-(2-Cl-Phenoxy), CH2 OCH3, COOCH(CH3)2], for which the “ED50 (mg/kg) in vivo” value in test [1] turned out to be 19 mg/kg. In addition, the “IC50 (ng/ml) in vitro” value in test [2] came to 2.6 ng/mL (≈ 6.12 nM). For the same compound, in test [3], the ED50 was determined as 4 mg/kg.

In the case of `CCc1noc(-c2ncc3[nH]c4cccc(Oc5ccccc5Cl)c4c3c2COC)n1` [5-(2-Cl-Phenoxy), CH2 OCH3, drawing 10], the “ED50 (mg/kg) in vivo” value in test [1] came to 11 mg/kg. Moreover, the “IC50 (ng/ml) in vitro” value in test [2] is 3.1 ng/mL (≈ 7.13 nM). Besides, the ED50 in test [3] stood at 0.8 mg/kg.

As for `CCOC(=O)c1ncc2[nH]c3cccc(Oc4ccccc4)c3c2c1COC` [5-Phenoxy, CH2 OCH3, COOEt, 5-Phenoxy-4-methoxymethyl-beta-carboline-3-carboxylic acid ethyl ester], the “ED50 (mg/kg) in vivo” value in test [1] stood at 0.4 mg/kg. Further, the “IC50 (ng/ml) in vitro” value in test [2] is 0.3 ng/mL (≈ 0.797 nM). Moreover, in test [3], the ED50 came out at 18 mg/kg.

As for `CCc1noc(-c2ncc3[nH]c4cccc(Oc5ccccc5)c4c3c2COC)n1` [5-Phenoxy, CH2 OCH3, drawing 12, 5-phenoxy-4-methoxymethyl-3-(3-ethyl-1,2,4-oxadiazol-5-yl)-beta carboline], in test [1], the “ED50 (mg/kg) in vivo” value is on record as 0.3 mg/kg. In test [2], the “IC50 (ng/ml) in vitro” value is 0.6 ng/mL (≈ 1.5 nM). The ED50 in test [3] was found to be 0.1 mg/kg.

Take `CCOC(=O)c1ncc2[nH]c3cccc(Oc4ccccc4)c3c2c1C` [5-Phenoxy, CH3, COOC2 H5, 5-phenoxy-4-methyl-beta-carboline-3-carboxylic acid ethyl ester, reference compound]: in test [1], the “ED50 (mg/kg) in vivo” value is 2.8 mg/kg. The “IC50 (ng/ml) in vitro” value in test [2] amounted to 2.0 ng/mL (≈ 5.77 nM). For the same compound, the ED50 in test [3] was > 30 mg/kg.

Take `CCc1noc(-c2ncc3[nH]c4cccc(Oc5ccccc5)c4c3c2C)n1` [5-Phenoxy, CH3, drawing 13, 5-phenoxy-4-methyl-3-(3-ethyl-1,2,4-oxadizaol-5-yl)-beta-carboline]: the “ED50 (mg/kg) in vivo” value in test [1] stood at 3.9 mg/kg. Further, the “IC50 (ng/ml) in vitro” value in test [2] was 4.3 ng/mL (≈ 11.6 nM). The ED50 in test [3] was found to be 2 mg/kg.

Take `COCc1c(C(=O)OC(C)C)ncc2[nH]c3ccc(Oc4cccc(Cl)c4C#N)cc3c12` [6-(2-cyano-3-chlorophenoxy)-4-methoxymethyl-beta-carboline-3-carboxylic acid isopropyl ester]: in test [1], the “ED50 (mg/kg) in vivo” value came out at 3.0 mg/kg. In test [2], the “IC50 (ng/ml) in vitro” value was determined as 0.67 ng/mL (≈ 1.49 nM). Further, the ED50 in test [3] amounted to 1 mg/kg.

Regarding `COCc1c(C(=O)OC(C)C)ncc2[nH]c3ccc(Oc4ccccc4C#N)cc3c12` [6-(2-cyanophenoxy)-4-methoxymethyl-beta-carboline-3-carboxylic acid isopropyl ester], the “ED50 (mg/kg) in vivo” value in test [1] turned out to be 3.8 mg/kg. Moreover, the “IC50 (ng/ml) in vitro” value in test [2] was 0.29 ng/mL (≈ 0.698 nM). Further, the ED50 in test [3] was 4 mg/kg.

With `COCc1c(C(=O)OC(C)C)ncc2[nH]c3ccc(Oc4ccccc4[N+](=O)[O-])cc3c12` [6-(2-nitrophenoxy)-4-methoxymethyl-beta-carboline-3-carboxylic acid isopropyl ester], in test [1], the “ED50 (mg/kg) in vivo” value was found to be 1.8 mg/kg. Also, the “IC50 (ng/ml) in vitro” value in test [2] came out at 0.33 ng/mL (≈ 0.758 nM). Further, in test [3], the ED50 worked out at 13 mg/kg.

As to `CCc1noc(-c2ncc3[nH]c4ccc(Oc5ccc(C(C)=O)cc5)cc4c3c2COC)n1` [6-(4-acetylphenoxy), CH2 OCH3, drawing 11, 6(4-acetylphenoxy)-4-methoxymethyl-3-(3-ethyl-1,2,4-oxadizaol-5-yl)-beta-carboline], the “ED50 (mg/kg) in vivo” value in test [1] is listed as 7.7 mg/kg. The “IC50 (ng/ml) in vitro” value in test [2] came out at 0.45 ng/mL (≈ 1.02 nM). For the same compound, the ED50 in test [3] stood at 0.3 mg/kg.

For `CCc1noc(-c2ncc3[nH]c4ccc(Oc5ccccc5)cc4c3c2C)n1` [6-Phenoxy, CH3, drawing 14, 6-phenoxy-4-methyl-3-(3-ethyl-1,2,4-oxadiazol-5-yl)-beta carboline], the “ED50 (mg/kg) in vivo” value in test [1] came out at 2.6 mg/kg. In test [2], the “IC50 (ng/ml) in vitro” value turned out to be 3.2 ng/mL (≈ 8.64 nM). In addition, the ED50 in test [3] amounted to 2.4 mg/kg.
